Experimental data from patent publication US6852673B2, “Herbicidal pyridine compounds” (BASF Aktiengesellschaft, priority 1998, dated 2005).

What was measured:
Type in all cases: in vivo
Hordeum vulgare (HORVW) = assay: Pre-emergence herbicidal evaluation, winter barley
Text: (§1) The pre-emergence herbicidal activity of the compounds of the present invention is exemplified by the following test in which the seeds of a variety of monocotyledonous and dicotyledonous plants are seperately mixed with potting soil and planted on top of approximately one inch of soil in separate pots. After planting, the pots are sprayed with the selected aqueous acetone solution containing test compound in sufficient quantity to provide the equivalent of about 0.0125 to 0.4 kg per hectare of test compound per pot. The treated pots are then placed on greenhouse benches, watered and cared for in accordance with conventional greenhouse procedures. From 2 to 4 weeks after treatment, the tests are terminated and each pot is examined and rated according to the rating system set forth below.

[1] = tested on: Triticum aestivum (TRZAW); assay: Pre-emergence herbicidal evaluation, winter wheat
Text: as §1

[2] = tested on: Abutilon theophrasti (ABUTH); assay: Pre-emergence herbicidal evaluation, velvetleaf
Text: as §1

[3] = tested on: Ipomoea hederacea (IPOHE); assay: Pre-emergence herbicidal evaluation, morning glory
Text: as §1

Lamium purpureum (LAMPU) = assay: Pre-emergence herbicidal evaluation, purple deadnettle
Text: as §1

[4] = tested on: Matricaria inodora (MATIN); assay: Pre-emergence herbicidal evaluation, mayweed
Text: as §1

Solanum nigrum (SOLNI) = assay: Pre-emergence herbicidal evaluation, black nightshade
Text: as §1

Stellaria media (STEME) = assay: Pre-emergence herbicidal evaluation, chickweed
Text: as §1

[5] = tested on: Alopecurus myosuroides (ALOMY); assay: Pre-emergence herbicidal evaluation, black grass
Text: as §1

[6] = tested on: Digitaria sanguinalis (DIGSA); assay: Pre-emergence herbicidal evaluation, large crabgrass
Text: as §1

Setaria viridis (SETVI) = assay: Pre-emergence herbicidal evaluation, green foxtail
Text: as §1

Galium aparine (GALAP) = assay: Pre-emergence herbicidal evaluation, cleaver
Text: as §1

CC(Cl)=CCOc1cc(C#N)cc(Oc2csc(C(F)(F)F)c2)n1 [Example 28]
3 (3 - Moderate effect): HORVW rating (Hordeum vulgare (HORVW); dose 0.4 kg/ha) | ALOMY rating ([5]; dose 0.025 kg/ha) | DIGSA rating ([6]; dose 0.025 kg/ha)
4 (4 - Injury): SOLNI rating (Solanum nigrum (SOLNI); dose 0.025 kg/ha)
7 (7 - Good herbicidal effect): ABUTH rating ([2]; dose 0.1 kg/ha)
0 (0 - No effect): HORVW rating (Hordeum vulgare (HORVW); dose 0.025 kg/ha) | TRZAW rating ([1]; dose 0.025 kg/ha) | TRZAW rating ([1]; dose 0.1 kg/ha) | IPOHE rating ([3]; dose 0.025 kg/ha) | IPOHE rating ([3]; dose 0.1 kg/ha)
9 (9 - Complete kill): MATIN rating ([4]; dose 0.025 kg/ha) | MATIN rating ([4]; dose 0.1 kg/ha) | MATIN rating ([4]; dose 0.4 kg/ha) | STEME rating (Stellaria media (STEME); dose 0.025 kg/ha) | STEME rating (Stellaria media (STEME); dose 0.1 kg/ha) | STEME rating (Stellaria media (STEME); dose 0.4 kg/ha) | ALOMY rating ([5]; dose 0.4 kg/ha) | DIGSA rating ([6]; dose 0.1 kg/ha) | DIGSA rating ([6]; dose 0.4 kg/ha)
1 (1 - Trace effect): HORVW rating (Hordeum vulgare (HORVW); dose 0.1 kg/ha) | TRZAW rating ([1]; dose 0.4 kg/ha) | IPOHE rating ([3]; dose 0.4 kg/ha)
5 (5 - Definite injury): ABUTH rating ([2]; dose 0.025 kg/ha) | LAMPU rating (Lamium purpureum (LAMPU); dose 0.025 kg/ha)
8 (8 - Approaching complete kill): ABUTH rating ([2]; dose 0.4 kg/ha) | LAMPU rating (Lamium purpureum (LAMPU); dose 0.1 kg/ha) | LAMPU rating (Lamium purpureum (LAMPU); dose 0.4 kg/ha) | SOLNI rating (Solanum nigrum (SOLNI); dose 0.1 kg/ha) | SOLNI rating (Solanum nigrum (SOLNI); dose 0.4 kg/ha) | ALOMY rating ([5]; dose 0.1 kg/ha)

CC(Cl)=CCOc1nc(Oc2cc(C(F)(F)F)nn2C)c(F)c(C)c1F [Example 35]
3 (3 - Moderate effect): TRZAW rating ([1]; dose 0.06 kg/ha) | TRZAW rating ([1]; dose 0.12 kg/ha)
8 (8 - Approaching complete kill): STEME rating (Stellaria media (STEME); dose 0.04 kg/ha) | SETVI rating (Setaria viridis (SETVI); dose 0.04 kg/ha)
9 (9 - Complete kill): MATIN rating ([4]; dose 0.04 kg/ha) | MATIN rating ([4]; dose 0.06 kg/ha) | MATIN rating ([4]; dose 0.12 kg/ha) | STEME rating (Stellaria media (STEME); dose 0.06 kg/ha) | STEME rating (Stellaria media (STEME); dose 0.12 kg/ha) | ALOMY rating ([5]; dose 0.04 kg/ha) | ALOMY rating ([5]; dose 0.06 kg/ha) | ALOMY rating ([5]; dose 0.12 kg/ha) | SETVI rating (Setaria viridis (SETVI); dose 0.06 kg/ha) | SETVI rating (Setaria viridis (SETVI); dose 0.12 kg/ha)
1 (1 - Trace effect): TRZAW rating ([1]; dose 0.04 kg/ha)

C=C(Cl)COc1cc(C)cc(Oc2cc(C(F)(F)F)nn2C)n1 [Example 36]
4 (4 - Injury): ALOMY rating ([5]; dose 0.025 kg/ha)
7 (7 - Good herbicidal effect): LAMPU rating (Lamium purpureum (LAMPU); dose 0.025 kg/ha) | MATIN rating ([4]; dose 0.025 kg/ha)
8 (8 - Approaching complete kill): ABUTH rating ([2]; dose 0.4 kg/ha) | GALAP rating (Galium aparine (GALAP); dose 0.4 kg/ha) | LAMPU rating (Lamium purpureum (LAMPU); dose 0.1 kg/ha) | ALOMY rating ([5]; dose 0.1 kg/ha) | DIGSA rating ([6]; dose 0.025 kg/ha)
0 (0 - No effect): TRZAW rating ([1]; dose 0.025 kg/ha) | GALAP rating (Galium aparine (GALAP); dose 0.025 kg/ha)
5 (5 - Definite injury): HORVW rating (Hordeum vulgare (HORVW); dose 0.4 kg/ha) | ABUTH rating ([2]; dose 0.025 kg/ha) | ABUTH rating ([2]; dose 0.1 kg/ha) | STEME rating (Stellaria media (STEME); dose 0.025 kg/ha)
3 (3 - Moderate effect): HORVW rating (Hordeum vulgare (HORVW); dose 0.1 kg/ha) | GALAP rating (Galium aparine (GALAP); dose 0.1 kg/ha) | IPOHE rating ([3]; dose 0.1 kg/ha)
2 (2 - Slight effect): HORVW rating (Hordeum vulgare (HORVW); dose 0.025 kg/ha) | TRZAW rating ([1]; dose 0.1 kg/ha) | TRZAW rating ([1]; dose 0.4 kg/ha) | IPOHE rating ([3]; dose 0.025 kg/ha)
9 (9 - Complete kill): IPOHE rating ([3]; dose 0.4 kg/ha) | LAMPU rating (Lamium purpureum (LAMPU); dose 0.4 kg/ha) | MATIN rating ([4]; dose 0.1 kg/ha) | MATIN rating ([4]; dose 0.4 kg/ha) | STEME rating (Stellaria media (STEME); dose 0.1 kg/ha) | STEME rating (Stellaria media (STEME); dose 0.4 kg/ha) | ALOMY rating ([5]; dose 0.4 kg/ha) | DIGSA rating ([6]; dose 0.1 kg/ha) | DIGSA rating ([6]; dose 0.4 kg/ha) | SETVI rating (Setaria viridis (SETVI); dose 0.025 kg/ha) | SETVI rating (Setaria viridis (SETVI); dose 0.1 kg/ha) | SETVI rating (Setaria viridis (SETVI); dose 0.4 kg/ha)
